Data published in patent US8921360B2, “Heterobicycle-substituted azolyl benzene fungicides” (priority 2009, dated 2014).

Assays:
Type in all cases: in vivo
[1] = tested on: Puccinia recondita f. sp. tritici; test: Test C: wheat leaf rust, spray the day after inoculation of wheat seedlings; conditions: 200 ppm; wheat seedlings inoculated, sprayed the following day, rated after 5 days;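 note: Curative spray on infected wheat seedlings with visual rating 5 days later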
Source text: General protocol for preparing test suspensions for Tests A-G: the test compounds were first dissolved in acetone in an amount equal to 11% of the final volume and then suspended at the desired concentration (in ppm) in acetone and purified water (50/50 mix by volume) containing 250 ppm of the surfactant Trem® 014 (polyhydric alcohol esters). The resulting test suspensions were then used in Tests A-G. Spraying a 200 ppm test suspension to the point of run-off on the test plants was the equivalent of a rate of 800 g/ha. Wheat seedlings were inoculated with a spore suspension of Puccinia recondita f. sp. tritici (the causal agent of wheat leaf rust) and incubated in a saturated atmosphere at 20° C. for 24 h. The following day, the test suspension was sprayed to the point of run-off on the wheat seedlings and then moved to a growth chamber at 20° C. for 5 days, after which time disease ratings were visually made. Results for Tests A-G are given in Table A. In the Table, a rating of 100 indicates 100% disease control and a rating of 0 indicates no disease control (relative to the controls). A dash (-) indicates no test results. All results are for 200 ppm except where followed by an “*”, which indicates 40 ppm.

[2] = tested on: Puccinia recondita f sp. tritici; test: Test B: wheat leaf rust, preventive spray on wheat seedlings; conditions: wheat seedlings sprayed to run-off, inoculated next day, rated after 24 h + 7 days; for Percentage Disease Control Test B: 200 ppm
Source text: General protocol for preparing test suspensions for Tests A-G: the test compounds were first dissolved in acetone in an amount equal to 11% of the final volume and then suspended at the desired concentration (in ppm) in acetone and purified water (50/50 mix by volume) containing 250 ppm of the surfactant Trem® 014 (polyhydric alcohol esters). The resulting test suspensions were then used in Tests A-G. Spraying a 200 ppm test suspension to the point of run-off on the test plants was the equivalent of a rate of 800 g/ha. The test suspension was sprayed to the point of run-off on wheat seedlings. The following day the seedlings were inoculated with a spore suspension of Puccinia recondita f sp. tritici (the causal agent of wheat leaf rust) and incubated in a saturated atmosphere at 20° C. for 24 h, and then moved to a growth chamber at 20° C. for 7 days, after which time disease ratings were visually made. Results for Tests A-G are given in Table A. In the Table, a rating of 100 indicates 100% disease control and a rating of 0 indicates no disease control (relative to the controls). A dash (-) indicates no test results. All results are for 200 ppm except where followed by an “*”, which indicates 40 ppm.

[3] = tested on: Septoria tritici; test: Test E: wheat leaf blotch, preventive spray on wheat seedlings; conditions: 200 ppm, wheat seedlings sprayed to run-off, inoculated next day, rated after 48 h + 19 days
Source text: General protocol for preparing test suspensions for Tests A-G: the test compounds were first dissolved in acetone in an amount equal to 11% of the final volume and then suspended at the desired concentration (in ppm) in acetone and purified water (50/50 mix by volume) containing 250 ppm of the surfactant Trem® 014 (polyhydric alcohol esters). The resulting test suspensions were then used in Tests A-G. Spraying a 200 ppm test suspension to the point of run-off on the test plants was the equivalent of a rate of 800 g/ha. The test suspension was sprayed to the point of run-off on wheat seedlings. The following day the seedlings were inoculated with a spore suspension of Septoria tritici (the causal agent of wheat leaf blotch) and incubated in a saturated atmosphere at 24° C. for 48 h, and then moved to a growth chamber at 20° C. for 19 days, after which time disease ratings were visually made. Results for Tests A-G are given in Table A. In the Table, a rating of 100 indicates 100% disease control and a rating of 0 indicates no disease control (relative to the controls). A dash (-) indicates no test results. All results are for 200 ppm except where followed by an “*”, which indicates 40 ppm.

[4] = tested on: Septoria nodorum; test: Test D: wheat glume blotch, preventive spray on wheat seedlings; conditions: wheat seedlings sprayed to run-off, inoculated next day, rated after 48 h + 7 days; for Percentage Disease Control Test D: 200 ppm
Source text: General protocol for preparing test suspensions for Tests A-G: the test compounds were first dissolved in acetone in an amount equal to 11% of the final volume and then suspended at the desired concentration (in ppm) in acetone and purified water (50/50 mix by volume) containing 250 ppm of the surfactant Trem® 014 (polyhydric alcohol esters). The resulting test suspensions were then used in Tests A-G. Spraying a 200 ppm test suspension to the point of run-off on the test plants was the equivalent of a rate of 800 g/ha. The test suspension was sprayed to the point of run-off on wheat seedlings. The following day the seedlings were inoculated with a spore suspension of Septoria nodorum (the causal agent of wheat glume blotch) and incubated in a saturated atmosphere at 20° C. for 48 h, and then moved to a growth chamber at 20° C. for 7 days, after which time disease ratings were visually made. Results for Tests A-G are given in Table A. In the Table, a rating of 100 indicates 100% disease control and a rating of 0 indicates no disease control (relative to the controls). A dash (-) indicates no test results. All results are for 200 ppm except where followed by an “*”, which indicates 40 ppm.

[5] = tested on: Botrytis cinerea; test: Test F: tomato botrytis, preventive spray on tomato seedlings; conditions: tomato seedlings sprayed to run-off, inoculated next day, rated after 48 h + 3 days; for Percentage Disease Control Test F: 200 ppm
Source text: General protocol for preparing test suspensions for Tests A-G: the test compounds were first dissolved in acetone in an amount equal to 11% of the final volume and then suspended at the desired concentration (in ppm) in acetone and purified water (50/50 mix by volume) containing 250 ppm of the surfactant Trem® 014 (polyhydric alcohol esters). The resulting test suspensions were then used in Tests A-G. Spraying a 200 ppm test suspension to the point of run-off on the test plants was the equivalent of a rate of 800 g/ha. The test suspension was sprayed to the point of run-off on tomato seedlings. The following day the seedlings were inoculated with a spore suspension of Botrytis cinerea (the causal agent of tomato botrytis) and incubated in saturated atmosphere at 20° C. for 48 h, and then moved to a growth chamber at 27° C. for 3 additional days, after which time disease ratings were visually made. Results for Tests A-G are given in Table A. In the Table, a rating of 100 indicates 100% disease control and a rating of 0 indicates no disease control (relative to the controls). A dash (-) indicates no test results. All results are for 200 ppm except where followed by an “*”, which indicates 40 ppm.

[6] = tested on: Alternaria solani; test: Test G: tomato early blight, preventive spray on tomato seedlings; conditions: tomato seedlings sprayed to run-off, inoculated next day, rated after 48 h + 5 days; for Percentage Disease Control Test G: 200 ppm
Source text: General protocol for preparing test suspensions for Tests A-G: the test compounds were first dissolved in acetone in an amount equal to 11% of the final volume and then suspended at the desired concentration (in ppm) in acetone and purified water (50/50 mix by volume) containing 250 ppm of the surfactant Trem® 014 (polyhydric alcohol esters). The resulting test suspensions were then used in Tests A-G. Spraying a 200 ppm test suspension to the point of run-off on the test plants was the equivalent of a rate of 800 g/ha. The test suspension was sprayed to the point of run-off on tomato seedlings. The following day the seedlings were inoculated with a spore suspension of Alternaria solani (the causal agent of tomato early blight) and incubated in a saturated atmosphere at 27° C. for 48 h, and then moved to a growth chamber at 24° C. for 5 days, after which time disease ratings were visually made. Results for Tests A-G are given in Table A. In the Table, a rating of 100 indicates 100% disease control and a rating of 0 indicates no disease control (relative to the controls). A dash (-) indicates no test results. All results are for 200 ppm except where followed by an “*”, which indicates 40 ppm.

[7] = tested on: Erysiphe graminis f. sp. tritici; test: Test A: wheat powdery mildew, preventive spray on wheat seedlings; conditions: wheat seedlings sprayed to run-off, inoculated next day, rated after 8 days, 100 = 100% disease control, 0 = no control; for Percentage Disease Control Test A: 200 ppm
Source text: General protocol for preparing test suspensions for Tests A-G: the test compounds were first dissolved in acetone in an amount equal to 11% of the final volume and then suspended at the desired concentration (in ppm) in acetone and purified water (50/50 mix by volume) containing 250 ppm of the surfactant Trem® 014 (polyhydric alcohol esters). The resulting test suspensions were then used in Tests A-G. Spraying a 200 ppm test suspension to the point of run-off on the test plants was the equivalent of a rate of 800 g/ha. The test suspension was sprayed to the point of run-off on wheat seedlings. The following day the seedlings were inoculated with a spore dust of Erysiphe graminis f. sp. tritici, (the causal agent of wheat powdery mildew) and incubated in a growth chamber at 20° C. for 8 days, after which time disease ratings were visually made. Results for Tests A-G are given in Table A. In the Table, a rating of 100 indicates 100% disease control and a rating of 0 indicates no disease control (relative to the controls). A dash (-) indicates no test results. All results are for 200 ppm except where followed by an “*”, which indicates 40 ppm.

Structure (SMILES)	Percentage Disease Control Test C [1] [%]	Percentage Disease Control Test B [2] [%]	Percentage Disease Control Test E [3] [%]	Percentage Disease Control Test D [4] [%]	Percentage Disease Control Test F [5] [%]	Percentage Disease Control Test G [6] [%]	Percentage Disease Control Test A [7] [%]	pest or weed control at 200 ppm ([2]; Puccinia recondita, 192 h, read-out: Percentage Disease Control Test B) [%]	pest or weed control at 200 ppm ([3]; Zymoseptoria tritici, 456 h, read-out: Percentage Disease Control Test E) [%]	pest or weed control at 200 ppm ([4]; Parastagonospora nodorum, 216 h, read-out: Percentage Disease Control Test D) [%]	pest or weed control at 200 ppm ([5]; Botrytis cinerea, topical, 120 h, read-out: Percentage Disease Control Test F) [%]	pest or weed control at 200 ppm ([6]; Alternaria solani, topical, 168 h, read-out: Percentage Disease Control Test G) [%]	pest or weed control at 200 ppm ([7]; Blumeria graminis, 192 h, read-out: Percentage Disease Control Test A) [%]
COC(=O)NCc1cc(-c2ccn(-c3ccc4c(c3)CCCO4)n2)ccc1Br [Compound 16]	100	100	100	100	99	85	100	–	–	–	–	–	–
COC(=O)NCc1cc(-c2ccn(-c3ccc4c(c3)CCCO4)n2)ccc1Cl [Compound 1, methyl N-[[2-chloro-5-[1-(3,4-dihydro-2H-1-benzopyran-6-yl)-1H-pyrazol-3-yl]phenyl]methyl]carbamate]	–	–	–	–	–	–	–	100	92	100	0	100	100
COC(=O)NCc1cc(-c2ccn(-c3ccc4c(c3)OCCO4)n2)ccc1Br [Compound 17]	100	100	99	100	87	93	100	–	–	–	–	–	–
COC(=O)NCc1cc(-c2ccn(-c3ccc4c(c3)OCCO4)n2)ccc1C [Compound 19]	100	100	100	100	99	73	100	–	–	–	–	–	–
COC(=O)NCc1cc(-n2ccc(-c3ccc4c(c3)C(F)CCO4)n2)ccc1F (centres unmarked) [Compound 22]	100	100	94	100	33	8	100	–	–	–	–	–	–
COC(=O)NCc1cc(-n2ccc(-c3ccc4c(c3)N(C)CCO4)n2)ccc1F [Compound 21]	98	100	96	100	99	99	13	–	–	–	–	–	–
COC(=O)NCc1cc(-c2ccn(-c3ccc4c(c3)N(C)C(=O)CO4)n2)ccc1F [Compound 13]	28	100	24	97	7	54	90	–	–	–	–	–	–
COC(=O)NCc1cc(-c2ccn(-c3ccc4c(c3)C=C(C#N)CO4)n2)ccc1Cl [Compound 27]	0	99	0	100	66	86	0	–	–	–	–	–	–
COC(=O)NCc1cc(-n2ccc(-c3ccc4c(c3)NC(=O)CO4)n2)ccc1F [Compound 14]	0	54	44	0	0	0	0	–	–	–	–	–	–
